Experimental data reported in US6429208B1, “Methods and compositions for restoring impaired cellular immune function” (Regents of the University of California, priority 1992, dated 2002).

What was measured:
[1] = system: PBMC from an HIV seropositive subject; experiment: Proliferative response to PHA of PBMC from HIV seropositive subjects; assay type: cell-based, human
Method: Proliferative assays were performed as previously described (see, for example, Hofmann, B., et al., Cell Immunol (1989) 121:336-48. Briefly, one microcurie ^3H-thymidine was added to cultures 72 hours after stimulation, and after further 24 hours, all cultures were harvested on glass fiber filters with an automatic harvesting machine (Skatron, Lierbyen, Norway), and the incorporated radioactivity was measured in a liquid scintillation counter (Beckman LS 1800) after an addition of 1.5 ml scintillation fluid.

[2] = Personal Communication; cited from earlier work
[3] = system: PBMC from HIV seropositive subjects; experiment: Proliferative response to Candida albicans, PBMC from HIV seropositive subjects; assay type: cell-based, human
Method: Proliferative assays were done in triplicates of 50,000 PBMC in 200 μL RPMI with 10% FCS and 8 μg/ml of Candida albicans. ddAdo was added in two-fold dilutions; tritiated thymidine was added at day 5 and cells were harvested at day 6. Concentrations of ddAdo from 12.5 to 50 ng/ml gave the highest responses. […] Ratio 1:12 gave 48% (±12) without and 76% (±9) with ddAdo during priming. Ratio 1:25 gave 61% (±15) without and 77% (±9) with ddAdo.

[4] = system: Raji cells; experiment: Cytotoxic T-cell 51Cr-release assay against Raji cells; assay type: cell-based, human
Method: Cytotoxic T-cells from HIV seropositive subjects “regained” their normal ability to lyse allogenic tumor cell line in the presence of ddAdo as shown in FIG. 10B. In this experiment, ddAdo was added either during the six days of generation/priming (middle column of FIG. 10B) or during the three hour cytotoxic assay (right column of FIG. 10B). The cytotoxic assay used was a standard assay. Briefly, 10^6 PBMC were primed and irradiated (3000 Rad) Raji B-lymphoblastoid cells (8:1 ratio) for six days and added to triplicates of ^51Cr-labeled target Raji cells in effector target ratios from 6.25 to 50. ^51Cr released to the supernatant was measured in a gamma counter. Percentage of specific ^51Cr-release was calculated as 100×(released by PBMC−spontaneous release)/(maximum release with Triton X−spontaneous release). ddAdo was added in concentrations of 10 or 100 ng/ml either during priming or lysis.

[5] = system: PBMC from HIV seropositive subjects; experiment: Intracellular cAMP in PBMC from HIV seropositive subjects; assay type: cell-based, human
Method: The compound 2′,5′ dideoxyadenosine (ddAdo) inhibits adenylate cyclase, the enzyme responsible for the generation of cAMP, by competition for the “P”-binding site (Johnson, J Biochem (1990) 265:11595-11600). […] In one such experiment (FIG. 9A), the intracellular cAMP level decreased to normal levels within 4 hours and remained at this level when tested after 20 hours. The effect of ddAdo was compared with two other adenylate cyclase inhibitors which are naturally occurring adenosine phosphates. When used in equal concentrations, the three inhibitors gave similar reductions in intracellular CAMP levels. For example, when added in 10 ng/ml for 10 min, ddAdo decreased the CAMP levels from 5.3 pmol/10^6 PBMC to 3.6; 3′ AMP to 3.5; and 2′,3′deoxy-AMP reduced the level to 3.2 pmol/10^6 PBMC.
cAMP was determined using a commercial scintillation proximity RIA (Amersham, Arlington Heights, Ill.) following the manufacturer's protocol. PKA activity was determined using a kit from Gibco (Grand Island, N.Y.) and the manufacturer's protocol. For the cAMP assay, cells were lysed and sonicated in assay buffer (provided with the kits). Proliferative assays were performed as described above.
Further purification was achieved by reverse phase chromatography. 3 ml of above solution was applied on C18 Sep-Pak cartridge (Waters) equilibrated with water+0.1% TFA. The column was washed with H2O-TFA until absorbance at 280nm reached baseline. Bound material was eluted from the column by stepwise elution with H2O-acetonitrile-TFA mixtures. There were three peaks on elution curve at 20%, 40% and 70% acetonitrile. The effluent from the above step was rechromatographed again on C18 cartridge and yielded additional quantities of the three products. […] Fraction 2 was added in various PBS dilutions to lymphocytes from HIV seropositive subjects. cAMP was then measured on lysates of these cells after 1 hour.

[6] = system: T lymphocyte; experiment: T lymphocyte proliferative response to HIV-specific protein (p24) in HIV seropositive subjects; assay type: cell-based, human; settings: FIG. 11
Source text: FIG. 11 is a graph showing T lymphocyte proliferative response in HIV seropositive subjects to a specific recall antigen (Candida albicans) and to an HIV-specific protein (p24) before and after ddAdo treatment.

SMILES: C[C@H]1O[C@@H](n2cnc3c(N)ncnc32)C[C@@H]1O [ddAdo, 2′,5′ dideoxyadenosine]
- Proliferative response to PHA [1]: improved
- Antiviral effect [2]: no antiviral effect
- Responses to Candida albicans (mean and SEM) ([3]; 14 HIV seropositive subjects, increased from 2900 (±1300)): 6100 (±1600) cpm
- Responses to Candida albicans ([3]; some HIV seropositive subjects, increased from less than 1000 cpm, FIG. 10A): about 10,000 cpm
- Ability of cytotoxic T-cells from HIV seropositive subjects to lyse allogenic tumor cell line ([4]; 10 or 100 ng/ml during priming or lysis, FIG. 10B): regained
- Effect on target lysis by HIV seronegative cells ([4]; HIV seronegative subjects): minimal effect
- Target lysis (specific ^51Cr-release) ([4]; Ratio 1:12, ddAdo during priming, without 48% (±12)): 76%
- Target lysis (specific ^51Cr-release) ([4]; Ratio 1:25, without 61% (±15)): 77%
- cAMP levels ([5]; 10 ng/ml for 10 min, decreased from 5.3): 3.6 pmol/10^6 PBMC
- Time for intracellular cAMP level to decrease to normal levels ([5]; added for 10 minutes followed by washing, remained at this level after 20 hours, FIG. 9A): ≤ 4 h
- T lymphocyte responses directed against HIV [6]: restores/increases
